# According to US5512581A, “Iminoxycarboxylates and derivatives as inhibitors of leukotriene biosynthesis” (Abbott Laboratories, priority 1995, dated 1996):
# System: leukotriene biosynthesis
# Experiment: In vivo leukotriene inhibition in rat peritoneal anaphylaxis model
# Details: 30 μmol/kg, oral gavage 1 h before antigen challenge
# Experimental: Inhibition of the biosynthesis of leuktrienes in vivo after oral administration of compound was determined using a rat peritoneal anaphylaxis model in a similar manner as that described by Young and coworkers (Young, P. R.; Dyer, R. D.; Carter, G. W. Fed. Proc., Fed. Am. Soc. Exp. Biol. 1985, 44, 1185). In this model rats were injected intraperitoneally (ip) with rabbit antibody to bovine serum albumin (BSA) and three hours later injected ip with BSA to induce an antgen-antibody response. Rats were sacrificed 15 minutes after this challenge and the peritoneal fluids were collected and analyzed for leukotriene levels. Test compounds were administered by gavage one hour prior to the antigen challenge. Percent inhibition values were determined by comparing the treatment group to the mean of the control group.
row,SMILES,% Inhibition (dose)
1,"O=C(O)C=NOC(c1ccc(OCc2ccc3ccccc3n2)cc1)C1CCCCC1 (stereo not shown) [Example 1, Cyclohexyl-(4-(2-quinolylmethoxy)phenyl)methyl!iminoxyacetic acid]",82%
2,"O=C(O)c1ccc(C=NOC(CC2CCCCC2)c2ccc(OCc3cscn3)cc2)cc1 (stereo not shown) [Example 19, O-2-cyclohexyl-1-(4-(4-thiazolylmethoxy)phenyl)eth-1-yl!-4-carboxybenzaldoxime]",81%

# Same assay, conditions: oral gavage 1 h before antigen challenge
row,SMILES,ED50
1,"CC(=NOC(c1ccc(OCc2ccc3ccccc3n2)cc1)C1CCCCC1)C(=O)O (stereo not shown) [Example 2, Cyclohexyl-(4-(2-quinolylmethoxy)phenyl)methyl!-2-iminoxy propionic acid]",1.2 mg/kg
2,"O=C(O)C=NOCC(c1ccc(OCc2ccc3ccccc3n2)cc1)C1CCCCCC1 (stereo not shown) [Example 27, 2-Cycloheptyl-2-(4-(2-quinolylmethoxy)phenyl)eth-1-yl!iminoxyacetic acid]",0.7 mg/kg

# System: 5-Lipoxygenase
# Experiment: Inhibition of calcium ionophore-induced LTB4 formation in human polymorphonuclear leukocytes (PMNL)
# Type: cell-based
# Details: stimulated LTB4 formation in human PMNL; calcium ionophore 8.3 μM, 15 min preincubation
# Experimental: Inhibition of leukotriene biosynthesis was evaluated in an assay involving calcium ionophore-induced LTB4 expressed in human polymorphornuclear leukocytes (PMNL). Human PMNL isolated from heparinized (20 USP units/mL) venous blood (25 mL) obtained from healthy volunteers was layered over an equal volume of Ficoll-Hypaque Mono-Poly Resolving Medium (ICN Flow, Costa Mesa, Calif.) and centrifugated at 400 x g for 40 min at 20° C. The PMNL was collected, erythrocytes lysed and washed 2x and suspended at 1.0×10^7 cells/mL in Earle's balanced salt solution with 17 mM Earle's HEPES. Aliquots of the cell suspension were preincubated with test compounds dissolved in DMSO (final concentration <2%) for 15 min. and stimulated with calcium ionophore (final concentration 8.3 μM) for 10 min. at 37° C. Incubations were stopped with the addition of two volumes of ice-cold methanol followed by centrifuging the cell suspensions at 4° C. for 10 min at 450 x g. The mount of LTB4 in the methanol extract was analyzed by enzyme-linked immunoassay or by HPLC analysis.
row,SMILES,IC50
1,"O=C(O)C=NOC(c1ccc(OCc2ccc3ccccc3n2)cc1)C1CCCCC1 (stereo not shown) [Example 1, Cyclohexyl-(4-(2-quinolylmethoxy)phenyl)methyl!iminoxyacetic acid]",21 nM
2,"O=C(O)c1ccc(C=NOC(c2ccc(OCc3ccc4ccccc4n3)cc2)C2CCCCC2)cc1 (stereo not shown) [Example 6, O-Cyclohexyl-(4-(2-quinolylmethoxy)phenyl)methyl!-4-carboxybenzaldoxime]",32 nM
3,"O=C(O)C=NOC(CCCc1ccc(Cl)cc1)c1ccc(OCc2ccc3ccccc3n2)cc1 (stereo not shown) [Example 12, 4-(4-Chlorophenyl)-1-(4-(2-quinolylmethoxy)phenyl) butyl!iminoxyacetic acid]",55 nM
4,"O=C(O)c1ccc(C=NOC(CC2CCCCC2)c2ccc(OCc3ccc4ccccc4n3)cc2)cc1 (stereo not shown) [Example 14, O-2-Cyclohexyl-1-(4-(2-quinolylmethoxy)phenyl)eth-1-yl!-4-carboxybenzaldoxime]",4 nM
5,"COC(=O)/C(C)=N\OC(c1ccc(OCc2ccc3ccccc3n2)cc1)C1CCCCC1 (stereo not shown) [Example 30, Cyclohexyl-(4-(2-quinolylmethoxy)phenyl)methyl!-Z-2-iminoxypropionic acid methyl ester]",170 nM
6,"COC(=O)/C(C)=N/OC(c1ccc(OCc2ccc3ccccc3n2)cc1)C1CCCCC1 (stereo not shown) [Example 31, Cyclohexyl-(4-(2-quinolylmethoxy)phenyl)methyl!-E-2-iminoxypropionic acid methyl ester]",25 nM
7,COC(=O)/C(C)=N/O[C@@H](c1ccc(OCc2ccc3ccccc3n2)cc1)C1CCCCC1 [Example 34],470 nM
8,"COC(=O)/C(C)=N/O[C@H](c1ccc(OCc2ccc3ccccc3n2)cc1)C1CCCCC1 [Example 36, (S)-Cyclohexyl-(4-(2-quinolylmethoxy)phenyl)methyl!-E-2-iminoxypropionic acid methyl ester]",50 nM
9,"O=C(O)/C=N/OC(c1ccc(OCc2ccc3ccccc3n2)cc1)C1CCCCC1 (stereo not shown) [Example 40, Cyclohexyl-(4-(2-quinolylmethoxy)phenyl)methyl!-E-iminoxyacetic acid]",17 nM
10,"C/C(=N\OC(Cc1ccccc1)c1ccc(OCc2ccc3ccccc3n2)cc1)C(=O)O (stereo not shown) [Example 42, 2-phenyl-1-(4-(2-quinolylmethoxy)phenyl)eth-1-yl!-E-2-iminoxy propionic acid]",< 100 nM
11,"C/C(=N\OC(c1ccc(OCc2ccc3ccccc3n2)cc1)c1cccs1)C(=O)O (stereo not shown) [Example 43, 2-thienyl-(4-(2-quinolylmethoxy)phenyl)methyl!-E-2-iminoxy propionic acid]",< 100 nM
12,"C/C(=N\OC(c1ccc(OCc2ccc3ccccc3n2)cc1Cl)C1CCCCC1)C(=O)O (stereo not shown) [Example 44, Cyclohexyl-(2-chloro4-(2-quinolylmethoxy)phenyl)methyl!-E-2-iminoxypropionic acid]",< 100 nM
13,"C/C(=N\OC(c1ccc(OCc2ccc3ccccc3n2)c(Cl)c1)C1CCCCC1)C(=O)O (stereo not shown) [Example 45, Cyclohexyl-(3-chloro-4-(2-quinolylmethoxy)phenyl)methyl!-E-2-iminoxypropionic acid]",< 100 nM
14,"C/C(=N\OC(CC(C)(C)c1ccccc1)c1ccc(OCc2ccc3ccccc3n2)cc1)C(=O)O (stereo not shown) [Example 48, 3-methyl-3-phenyl-1-(4-(2-quinolylmethoxy)phenyl)but-1-yl!-E-2-iminoxypropionic acid]",< 100 nM
15,"CC(C)(CC(O/N=C/C(=O)O)c1ccc(OCc2ccc3ccccc3n2)cc1)c1ccccc1 (stereo not shown) [Example 49, 3-methyl-3-phenyl-1-(4-(2-quinolylmethoxy)phenyl)but-1-yl!-E-2-iminoxyacetic acid]",< 100 nM
16,"CCCCC(O/N=C(\C)C(=O)O)c1ccc(OCc2ccc3ccccc3n2)cc1 (stereo not shown) [Example 50, 4-(2-quinolylmethoxy)phenylpent-1-yl!-E-2-iminoxypropionic acid]",< 100 nM
17,CCCCC(O/N=C/C(=O)O)c1ccc(OCc2ccc3ccccc3n2)cc1 (stereo not shown) [Example 51],< 100 nM
18,"CC(=NOCc1ccc(OCc2ccc3ccccc3n2)cc1Cl)C(=O)O [Example 57, 2-chloro-(4-(2-quinolylmethoxy)phenyl)methyl!-2-iminoxy propionic acid]",< 100 nM

# The remaining lines, values ahead:
row,IC50,SMILES
1,4 nM,"CC(=NOC(c1ccc(OCc2ccc3ccccc3n2)cc1)C1CCCCC1)C(=O)O (stereo not shown) [Example 2, Cyclohexyl-(4-(2-quinolylmethoxy)phenyl)methyl!-2-iminoxy propionic acid]"
2,6 nM,"CC(=NOC(CC1CCCCC1)c1ccc(OCc2ccc3ccccc3n2)cc1)C(=O)O (stereo not shown) [Example 15, 2-Cyclohexyl-1-(4-(2-quinolylmethoxy)phenyl)eth-1-yl!-2-iminoxypropionic acid]"
3,5 nM,O=C(O)C=NOCC(c1ccc(OCc2ccc3ccccc3n2)cc1)C1CCCCC1 (stereo not shown) [Example 26]
4,8 nM,"O=C(O)C=NOCC(c1ccc(OCc2ccc3ccccc3n2)cc1)C1CCCCCC1 (stereo not shown) [Example 27, 2-Cycloheptyl-2-(4-(2-quinolylmethoxy)phenyl)eth-1-yl!iminoxyacetic acid]"
5,5 nM,"CC(C)(C=NOCC(c1ccc(OCc2ccc3ccccc3n2)cc1)C1CCCCCC1)C(=O)O (stereo not shown) [Example 28, 2-cycloheptyl-2-(4-(2-quinolylmethoxy)phenyl)eth-1-yl!-3-iminoxy-2,2-dimethylpropionic acid]"
6,170 nM,"C/C(=N/OC(c1ccc(OCc2ccc3ccccc3n2)cc1)C1CCCCC1)C(=O)O (stereo not shown) [Example 32, cyclohexyl-(4-(2-quinolylmethoxy)phenyl)methyl!-Z-2-iminoxypropionic acid]"
7,15 nM,"C/C(=N\OC(c1ccc(OCc2ccc3ccccc3n2)cc1)C1CCCCC1)C(=O)O (stereo not shown) [Example 33, cyclohexyl-(4-(2-quinolylmethoxy)phenyl)methyl!-E-2-iminoxypropionic acid]"
8,70 nM,"C/C(=N\O[C@@H](c1ccc(OCc2ccc3ccccc3n2)cc1)C1CCCCC1)C(=O)O [Example 35, (R)-Cyclohexyl-(4-(2-quinolylmethoxy)phenyl)methyl!-E-2-iminoxypropionic acid]"
9,6 nM,"C/C(=N\O[C@H](c1ccc(OCc2ccc3ccccc3n2)cc1)C1CCCCC1)C(=O)O [Example 37, (S)-Cyclohexyl-(4-(2-quinolylmethoxy)phenyl)methyl!-E-2-iminoxypropionic acid]"
10,30 nM,"CC(=NOCC(c1ccc(OCc2ccc3ccccc3n2)cc1)C1CCCCC1)C(=O)O (stereo not shown) [Example 55, Cyclohexyl-1-(4-(2-quinolylmethoxy)phenyl)eth-2-yl!-2-iminoxy propionic acid]"
11,< 100 nM,"CC(=NOC(c1ccc(OCc2ccc3ccccc3n2)cc1)C1CCCCCC1)C(=O)O (stereo not shown) [Example 58, Cycloheptyl-(4-(2-quinolylmethoxy)phenyl)methyl!-2-iminoxy propionic acid]"
12,36 nM,C/C(=N\OC[C@@H](c1ccc(OCc2ccc3ccccc3n2)cc1)C1CCCC1)C(=O)O [Example 62]

# System: leukotriene
# Experiment: In vivo leukotriene inhibition in rat pleural inflammation (A23187 ionophore-induced)
# Details: 30 μmol/kg, dosed in 0.2% methocel 1 h before intrapleural A23187, male rats
# Experimental: Pleural inflammation was induced in male rats following the method of Rao et al (Rao, T. S., Currie, J. L., Shaffer, A. F., Isakson, P. C., (1993) Evaluation of 5-lipoxygenase Inhibitors, Zileuton, A-78773 and ICI D-2138 in an Ionophore (A-23 187) Induced Pleural Inflammation Model in the Rat. Life Sciences, 53: 147). Rats were dosed with experimental compounds in 0.2% methocel one hour prior to the intrapleural injection of the calcium ionophore, A23 187. The rats where lightly anesthetized with Pentrane (Abbott Laboratories) and injected intrapleurally with 0.5 ml of 2% ethanol in injectable saline (Abbott Laboratories) containing 20 ug of A23187 (Cal BioChem-Novabiochem). Thirty minutes later the animals were euthanised and the pleural cavities lavaged with ice cold saline (Abbott Laboratories). The lavage fluid was then added to ice cold methanol (final methanol concentration 30%) to lyse cells and precipitate protein. Eicosanoids were determined by enzyme immunoassay by standard methods.
row,SMILES,% Inhibition (dose)
1,"CC(=NOC(c1ccc(OCc2ccc3ccccc3n2)cc1)C1CCCCC1)C(=O)O (stereo not shown) [Example 2, Cyclohexyl-(4-(2-quinolylmethoxy)phenyl)methyl!-2-iminoxy propionic acid]",89%

# Same assay, conditions: Rattus norvegicus; dosed in 0.2% methocel 1 h before intrapleural A23187, male rats
row,SMILES,ED50
1,"C/C(=N\OC(c1ccc(OCc2ccc3ccccc3n2)c(Cl)c1)C1CCCCC1)C(=O)O (stereo not shown) [Example 45, Cyclohexyl-(3-chloro-4-(2-quinolylmethoxy)phenyl)methyl!-E-2-iminoxypropionic acid]",1.2 mg/kg
2,"C/C(=N\OC(CC(C)(C)c1ccccc1)c1ccc(OCc2ccc3ccccc3n2)cc1)C(=O)O (stereo not shown) [Example 48, 3-methyl-3-phenyl-1-(4-(2-quinolylmethoxy)phenyl)but-1-yl!-E-2-iminoxypropionic acid]",2 mg/kg
